SMILES strings stand for the structures.

For 21 compounds, IC50 results are on record in patent publication US9255100B2 (BAYER INTELLECTUAL PROPERTY GMBH, priority 2010, dated 2016).

The experiment has as its target T1, N-terminally GST-tagged human full length recombinant Mps-1 kinase (Homo sapiens, UniProt P33981).
T1 construct: N-terminally GST-tagged human full length recombinant Mps-1 kinase; purchased Invitrogen, Karslruhe, Germany PV4071
T1 sequence (P33981 1-857): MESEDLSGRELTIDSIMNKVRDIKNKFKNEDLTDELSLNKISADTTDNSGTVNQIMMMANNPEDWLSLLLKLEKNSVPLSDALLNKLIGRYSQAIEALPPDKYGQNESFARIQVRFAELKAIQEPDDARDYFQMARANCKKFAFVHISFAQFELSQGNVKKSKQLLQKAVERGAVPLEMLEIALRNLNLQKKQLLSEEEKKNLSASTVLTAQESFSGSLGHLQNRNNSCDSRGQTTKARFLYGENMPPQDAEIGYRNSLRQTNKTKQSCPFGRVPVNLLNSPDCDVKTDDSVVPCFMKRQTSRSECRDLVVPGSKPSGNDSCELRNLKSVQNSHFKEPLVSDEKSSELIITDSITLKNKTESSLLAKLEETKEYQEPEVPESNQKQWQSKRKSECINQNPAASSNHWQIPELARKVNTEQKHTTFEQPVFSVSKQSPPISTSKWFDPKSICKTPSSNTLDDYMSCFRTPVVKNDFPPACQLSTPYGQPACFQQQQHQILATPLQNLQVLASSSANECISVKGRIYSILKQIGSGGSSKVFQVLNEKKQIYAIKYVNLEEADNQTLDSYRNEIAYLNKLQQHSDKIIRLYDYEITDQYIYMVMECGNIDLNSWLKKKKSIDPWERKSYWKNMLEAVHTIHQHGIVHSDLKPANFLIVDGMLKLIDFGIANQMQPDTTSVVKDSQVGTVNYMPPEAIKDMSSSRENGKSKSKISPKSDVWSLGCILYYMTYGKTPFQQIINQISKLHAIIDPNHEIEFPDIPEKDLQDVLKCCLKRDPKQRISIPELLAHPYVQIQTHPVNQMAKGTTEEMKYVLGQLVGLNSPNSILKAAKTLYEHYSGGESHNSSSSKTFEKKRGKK
Briefly: Mps-1 kinase assay (TR-FRET). Type of experiment: biochemical. The note with it: Mps1 IC50 [nM], 10 μM ATP, 1 μM peptide substrate, 60 min at 22° C. Here is the method:
The human kinase Mps-1 phosphorylates a biotinylated substrate peptide. Detection of the phosphorylated product is achieved by time-resolved fluorescence resonance energy transfer (TR-FRET) from Europium-labelled anti-phospho-Serine/Threonine antibody as donor to streptavidin labelled with cross-linked allophycocyanin (SA-XLent) as acceptor. Compounds are tested for their inhibition of the kinase activity.
N-terminally GST-tagged human full length recombinant Mps-1 kinase (purchased from Invitrogen, Karslruhe, Germany, cat. no PV4071) was used. As substrate for the kinase reaction a biotinylated peptide of the amino-acid sequence […] (C-terminus in amide form, purchased from Biosynthan GmbH, Berlin) was used.
The concentration of Mps-1 in the assay was adjusted to the activity of the enzyme lot and was chosen appropriate to have the assay in the linear range, typical enzyme concentrations were in the range of about 1 nM (final conc. in the 5 μl assay volume).
The resulting mixture was incubated 1 h at 22° C. to allow the binding of the phosphorylated peptide to the anti-phospho(Ser/Thr)-Europium-antibody. Subsequently the amount of phosphorylated substrate was evaluated by measurement of the resonance energy transfer from the Europium-labelled anti-phospho(Ser/Thr) antibody to the Streptavidin-XLent.
Background: In TR-FRET formats the signal depends on donor and acceptor labels being close together.
By IC50 is commonly meant the concentration that inhibits the measured activity by half. On to `Cc1cc(-c2cnc3c(NCc4cc[nH]n4)cc(Oc4cccc(F)c4)nn23)ccc1C(=O)NC1CC1` [Example 489, N-cyclopropyl-4-{6-(3-fluoro-phenoxy)-8-[(1H-pyrazol-3-ylmethyl)amino]imidazo [1,2-b]pyridazin-3-yl}-2-methylbenzamide], for which the half-maximal inhibitory concentration (IC50) was 0.2 nM.
As for `Cc1cc(-c2cnc3c(NCCC(F)(F)F)cc(Sc4ccccc4CO)nn23)ccc1C(=O)NC1CC1` [Example 270, N-cyclopropyl-4-(6-{[2-(hydroxymethyl)phenyl]sulfanyl}-8-[(3,3,3-trifluoropropyl)amino]imidazo[1,2-b]pyridazin-3-yl)-2-methylbenzamide], the IC50 was found to be 0.1 nM.
Under `CC(C)CNc1cc(Cl)nn2c(-c3ccc(C(N)=O)cc3)cnc12` [Example 176, 4-{6-Chloro-8-[(2-methylpropyl)amino]imidazo[1,2-b]pyridazin-3-yl}benzamide] stands 465 nM; under `Cc1cc(-c2cnc3c(NCC(C)(C)O)cc(Nc4cccc(C(C)C)c4)nn23)ccc1C(=O)NC1CC1` [Example 385, N-cyclopropyl-4-{8-[(2-hydroxy-2-methylpropyl)amino]-6-[(3-isopropylphenyl)amino]imidazo[1,2-b]pyridazin-3-yl}-2-methylbenzamide], 0.9 nM; under `Cc1cc(-c2cnc3c(NCCCN4CCOCC4)cc(Oc4cccc(F)c4)nn23)ccc1C(=O)NC1CC1` [Example 506, N-cyclopropyl-4-[6-(3-fluoro-phenoxy)-8-{[3-(morpholin-4-yl)propyl]amino}imidazo[1,2-b]pyridazin-3-yl]-2-methyl-benzamide], 0.1 nM.
With `Cc1cc(-c2cnc3c(NCCCN(C)C)cc(Oc4cccc(F)c4)nn23)ccc1C(=O)NC1CC1` [Example 312, N-cyclopropyl-4-[8-{[3-(dimethylamino)propyl]amino}-6-(3-fluorophenoxy)imidazo[1,2-b]pyridazin-3-yl]-2-methyl-benzamide] the figure was 0.2 nM; with `Cc1cc(-c2cnc3c(NCC4CCSCC4)cc(Sc4cccc(O)c4)nn23)ccc1C(=O)NC1CC1` [Example 287, N-cyclopropyl-4-{6-[(3-hydroxyphenyl)sulfanyl]-8-[(tetrahydro-2H-thiopyran-4-ylmethyl)amino]imidazo[1,2-b]pyridazin-3-yl}-2-methylbenzamide], 0.3 nM.
Under `Cc1cc(Nc2cc(NCC(C)(C)O)c3ncc(-c4ccc(C(=O)NC5CC5)c(C)c4)n3n2)ccc1F` [Example 382, N-cyclopropyl-4-{6-[(4-fluoro-3-methylphenyl)amino]-8-[(2-hydroxy-2-methylpropyl)amino]imidazo[1,2-b]pyridazin-3-yl}-2-methylbenzamide] stands 1.2 nM.
As for `Cc1cc(-c2cnc3c(NCC(C)(C)O)cc(OCc4ccccc4)nn23)ccc1C(=O)NC1CC1` [Example 326, 4-{6-(benzyloxy)-8-[(2-hydroxy-2-methylpropyl)amino]imidazo[1,2-b]pyridazin-3-yl}-N-cyclo-propyl-2-methylbenzamide], the IC50 was found to be 1.9 nM.
Take `Cc1cc(-c2cnc3c(NCCC(F)(F)F)cc(Sc4ccc(F)cc4)nn23)ccc1C(=O)NC1CC1` [Example 250, N-cyclopropyl-4-{6-[(4-fluorophenyl)sulfanyl]-8-[(3,3,3-trifluoropropyl)amino]imidazo[1,2-b]pyridazin-3-yl}-2-methylbenzamide]: the IC50 was 0.3 nM.
With `Cc1cc(-c2cnc3c(NCC(C)(C)O)cc(Oc4cccc(F)c4F)nn23)ccc1C(=O)NC1CC1` [Example 92, N-cyclopropyl-4-{6-(2,3-difluorophenoxy)-8-[(2-hydroxy-2-methylpropyl)amino]imidazo[1,2-b]pyridazin-3-yl}-2-methylbenzamide] the figure was 0.2 nM.
With `C/C=C/c1cc(NCCC(F)(F)F)c2ncc(-c3ccc(-c4cnc(C5CC5)[nH]4)cc3)n2n1` [Example 16, 3-[4-(2-Cyclopropyl-1H-imidazol-5-yl)phenyl]-6-[(1E)-prop-1-en-1-yl]-N-(3,3,3-trifluoropropyl)imidazo[1,2-b]pyridazin-8-amine] the figure was 27.3 nM.
As to `Cc1cc(-c2cnc3c(NCC(C)(C)O)cc(Sc4ccccc4F)nn23)ccc1C(=O)NC1CC1` [Example 70, N-cyclopropyl-4-{6-[(2-fluorophenyl)sulfanyl]-8-[(2-hydroxy-2-methylpropyl)amino]imidazo[1,2-b]pyridazin-3-yl}-2-methylbenzamide], the IC50 amounted to 0.3 nM.
With `Cc1nnc(-c2ccc(-c3cc(NCC(C)C)c4ncc(-c5ccc(C(=O)NC6CC6)cc5)n4n3)cc2)o1` [Example 148, N-cyclopropyl-4-{6-[4-(5-methyl-1,3,4-oxadiazol-2-yl)phenyl]-8-[(2-methylpropyl)amino]imidazo[1,2-b]pyridazin-3-yl}benzamide], the IC50 came out at 1.5 nM.
Under `CC(C)(O)CNc1cc(-c2ccc(F)cc2)nn2c(-c3ccc(-c4cnc(C5CC5)[nH]4)cc3)cnc12` [Example 8, 1-({3-[4-(2-Cyclopropyl-1H-imidazol-5-yl)phenyl]-6-(4-fluorophenyl)imidazo[1,2-b]pyridazin-8-yl}amino)-2-methylpropan-2-ol] stands 111 nM; under `Cc1cc(-c2cnc3c(NCC4CC[S+]([O-])CC4)cc(Oc4ccc(Cl)cc4)nn23)ccc1C(=O)NC1CC1` (mixture of isomers) [Example 294B, 4-[6-(4-chlorophenoxy)-8-({[(cis/trans)-1-oxidotetrahydro-2H-thiopyran-4-yl]methyl}amino)imidazo[1,2-b]pyridazin-3-yl]-N-cyclopropyl-2-methylbenzamide], 0.2 nM; under `COc1cc(Nc2cc(NCCC(F)(F)F)c3ncc(-c4ccc(C(=O)NC5CC5)c(C)c4)n3n2)ccc1F` [Example 422, N-cyclopropyl-4-{6-[(4-fluoro-3-methoxyphenyl)amino]-8-[(3,3,3-trifluoropropyl)amino]imidazo[1,2-b]pyridazin-3-yl}-2-methylbenzamide], 0.4 nM.
With `CCNC(=O)c1ccc(-c2cnc3c(NCCOC)cc(Oc4cc(F)ccc4C)nn23)cc1C` [Example 609, N-ethyl-4-{6-(5-fluoro-2-methylphenoxy)-8-[(2-methoxyethyl)a-mino]imidazo[1,2-b]pyridazin-3-yl}-2-methylbenzamide] the figure was 2.9 nM; with `Cc1cc(-c2cnc3c(NCC4CCC(C)(O)CC4)cc(-c4ccccc4CO)nn23)ccc1C(=O)NC1CC1` (stereo not drawn) [Example 340, N-cyclopropyl-4-(8-{[(4-hydroxy-4-methylcyclohexyl)methyl]amino}-6-[2-(hydroxymethyl)phenyl]imidazo[1,2-b]pyridazin-3-yl)-2-methylbenzamide], 3.3 nM.
As to `Cc1cc(-c2cnc3c(NCC(C)(C)O)cc(-c4cncc(C#N)c4)nn23)ccc1C(=O)NC1CC1` [Example 234, 4-{6-(5-cyanopyridin-3-yl)-8-[(2-hydroxy-2-methylpropyl)amino]imidazo[1,2-b]pyridazin-3-yl}-N-cyclopropyl-2-methylbenzamide], the concentration for half-maximal inhibition (IC50) came to 6.1 nM.
Under `CNC(=O)c1ccc(-c2cnc3c(NCCC(F)(F)F)cc(Oc4cccc(F)c4)nn23)cc1C` [Example 575, 4-{6-(3-fluorophenoxy)-8-[(3,3,3-trifluoropropyl)a-mino]imidazo[1,2-b]pyridazin-3-yl}-N,2-dimethylbenzamide] stands below 1 nM.
